What was measured:
HCT116 cells = assay: Growth inhibitory activity on HCT116 cell (CellTiter-Glo); type: cell-based; conditions: Homo sapiens, HCT-116, 72 h; test compound 1 μM, 3 days; read-out: HCT116 cell proliferation inhibitory rate (%) at 1 μM
Protocol: The growth inhibitory activity of the compound on HCT116 cell was evaluated by the following method.
HCT116 cells were seeded in a 384 well blackplate at 900 cells/[…]/well, and maintained in an assay medium (RPMI medium (Wako) containing 2% fetal bovine serum, 50 Unit/mL penicillin and […] streptomycin (Invitrogen)). The next day, a test compound dissolved in dimethyl sulfoxide (DMSO) was diluted with the assay medium, and the obtained compound solution was added by […] to each well of a plate containing HCT116 cells, and incubated at 37° C., 5% CO2 (test compound addition group).
A similar reaction was performed without adding a test compound (test compound non-addition group).
Furthermore, a similar reaction was performed under the conditions without adding HCT116 cell and a test compound (control group).
After 3 days, […] of a CellTiter-Glo reagent (Promega KK) was added to the well, and the mixture was stirred for 10 min. Thereafter, the luminescence value of each well was measured by the EnVision™ multilabel counter (Perkin Elmer Inc.).
The HCT116 cell proliferation inhibitory rate (%) of the test compound was determined by the following calculation formula. (1−(luminescence of test compound addition group−luminescence of control group)÷(luminescence of test compound non-addition group−luminescence of control group))×100
The HCT116 cell proliferation inhibitory rates (%) of the test compound (1 μM) are shown below.

[1] = Anti-fatty liver effect (triglyceride amount in liver); type: in vivo; conditions: homo low-density lipoprotein receptor deficient mouse, choline-deficient amino acid diet, oral once per day for three weeks
Text: As representative examples of anti-fatty liver effect, the action on fatty liver caused by non-alcoholic steatohepatitis was verified by the following method.
For efficacy evaluation of action on the above-mentioned fibrosis, 9-week-old, male, homo low-density lipoprotein receptor deficient mouse (Jackson Laboratories (Bar Harbor Me., USA)) was used. Specifically, a choline-deficient amino acid diet (A08111307, Research Diets, New Brunswick, N.J., USA) was fed to the above-mentioned mouse for one week, and a drug was administered for three weeks, and then the triglyceride amount in liver after the drug administration was measured.
For the above-mentioned drug administration group, the test compound suspended in 0.5% methylcellulose solution was orally administered by gavage using a stomach gavage needle once per day (n=8). […]
The measurement of the triglyceride amount in liver was performed by the following method. […] The total weight of the isolated liver was measured, and a part of the liver was immediately cryopreserved using dry ice. […] The dried substance was dissolved in 2-propanol, and the triglyceride concentration in the solution was measured by autoanalyzer (Hitachi 7180 type). The total triglyceride amount in the liver (mg/liver) was calculated from the weight of the liver used for the measurement and the total liver weight. […]

C[C@@H](COc1cnc(-c2ccc(Oc3cccc(OCC4CC4)c3)cc2)o1)NC(N)=O [Example 82, 1-((2S)-1-((2-(4-(3-(cyclopropylmethoxy)phenoxy)phenyl)-1,3-oxazol-5-yl)oxy)propan-2-yl)urea]
inhibition at 1 µM (HCT116 cells): 33% | inhibitory effect on fatty liver caused by non-alcoholic steatohepatitis (triglyceride amount in liver, FIG. 2) [1]: superior inhibitory effect on fatty liver caused by non-alcoholic steatohepatitis

From US10252997B2, “Monocyclic compound” (Takeda Pharmaceutical Company Limited, priority 2015, dated 2019)
